Laboratory results: PMC3183387 (Journal of the American Chemical Society, 2011)

Legend:
[1] = test system: Tyr181Cys Variant Strain of HIV-1; conditions: result in words; cited from earlier work
[2] = test system: variant HIV strain that encodes the Tyr181Cys (Y181C) mutation of HIV-RT; assay: Anti-HIV activity against Tyr181Cys variant strain in MT-2 cells; assay type: cell-based, HIV-1; conditions: result in words

CC(C)Nc1cccnc1N1CCN(C(=O)c2cc3cc(NS(C)(=O)=O)ccc3[nH]2)CC1 [delavirdine]
activity towards Y181C containing variants [1]: do not have useful activity

Cc1ccnc2c1NC(=O)c1cccnc1N2C1CC1 [nevirapine]
activity towards Y181C containing variants [1]: do not have useful activity
activity against viral strains containing the Tyr181Cys (Y181C) mutation [2]: no activity
